Experiments:
[1] = target: T1, cortisone reductase of mouse adipose cell (11βHSD1) (Mus musculus, UniProt P50172); assay: Inhibitory activity assay against cortisone reductase of mouse primary adipocytes; type: cell-based; conditions: differentiated ICR mouse visceral fat primary adipocytes, 100 nM [1,2-3H] cortisone, 37° C.
T1 construct: The medium of adipocytes which were differentiated and induced as mentioned above were replaced; endogenous in cells; host or cells: primary cells from visceral fat tissue of ICR male mice (Japan SLC), differentiated into adipocytes in culture
Description: The adipose tissues adhered to the mesenterium and around the testicle of ten ICR male mice (9 to 11 weeks old, Japn SLC Inc.) (hereinafter, referred to as visceral fat tissue) were soaked in about 100 mL of a phospate buffer (0.20 g/L KCl, 0.20 g/L KH2PO4, 8.00 g/L NaCl, 2.16 g/L Na2HPO4.7H2O, 100 unit/ml penicillin (GIBCO), 100 μg/ml streptomycin (GIBCO), 250 ng/ml amphotericin (GIBCO)) and washed at room temperature.
The excised visceral fat tissues was cut finely in about 5×5 mm with scissors in Dulbecco's modified Eagle medium (about 50 ml, containing 4.5 g/L D-glucose and 584 mg/L L-glutamine, GIBCO) to which collagenase (Type II, Sigma), penicillin (GIBCO), streptomycin (GIBCO) and amphotericin (GIBCO) were added in an amount so that the final concentrations thereof are adjusted to 1 mg/ml, 100 unit/ml, 100 μg/ml and 250 ng/ml, respectively. Then, the mixture was shaken at 37° C. for 30 minutes (about 170 rpm), filtered through nylon mesh (80S [the pore size: 250 μm], SANSHIN INDUSTRIAL CO., LTD.), and the filtrate (cell suspension) was collected. This filtrate was centrifuged at 1800 rpm at room temperature for 5 minutes, and then, the liquid layer was removed stilly by decantation to give a precipate. This precipiate was suspended in Dulbecco's modified Eagle medium (30 ml, containing 4.5 g/L D-glucose and 584 mg/L L-glutamine, GIBCO; hereinafter, occasionally referred to as FBS-containing medium), to which fetal bovine serum (hereinafter referred to as FBS, GIBCO), ascorbic acid (Wako Pure Chemical Industries, Ltd.), penicillin (GIBCO), streptomycin (GIBCO) and amphotericin (GIBCO) are added thereto in an amount so that the final concentrations thereof were adjusted to 10%, 200 μM, 100 units/ml, 100 μg/ml and 250 ng/ml, respectively, and then the suspension was filtered through a nylon mesh (420S [pore size: 25 μm], SANSHIN INDUSTRIAL CO., LTD.). The filtrate was collected, and centrifuged at 1800 rpm at room temperature for 5 minutes. The liquid layer was removed stilly by decantation, and the precipitate was suspended again in the FBS-containing medium (30 ml). This suspension was treated by the same procedure (centrifugation, removal of liquid layer, suspension in FBS-containing medium) two times more, and the suspension (90 ml) was prepared. This suspension was put into cell culture flasks (T150, for adhered cell culture, Iwaki Glass) in a each volume of 30 ml, and incubated at 37° C. in the presence of 5% CO2. At 5 to 6 hours after starting incubation, the medium was removed, and the wall of the flask was washed with the above-mentioned phosphate buffer (15 ml). The washing liquid was removed, and the washing procedure was repeated again, and the phosphate buffer was removed. To the flask was added FBS-containing medium (30 ml), and the mixture was incubated at 37° C. under the presence of 5% CO2. On Day 1 or Day 2 after the culture started, the medium was removed, and the wall of the flask was washed with the phosphate buffer (15 ml) once. To the flask was added a trypsin-ethylenediamine tetraacetate (hereinafter, referred to as trypsin-EDTA) solution (0.05% trypsin, 0.53 mM EDTA 4Na, GIBCO) in such a volume that the cells are duly soaked, and the mixture was allowed to stand at 37° C. for 5 minutes. To this mixture was added the FBS-containing medium in about 10-times volume of that of the trypsin-EDTA solution, and then the cell suspension was obtained.
The cells in the cell suspension were counted with a counting chamber, and the cell suspension was diluted with the FBS-containing medium so that the concentration of the cell was adjusted to 1.4×10^5 cells/ml. Thus obtained cell dilution was put into a 48-well plate (for adherent cell culture, Iwaki Glass) in an amount of 300 μl per well, and the plate was incubated at 37° C. in the presence of 5% CO2 for 1 to 2 days. […]

[2] = target: T2, cortisone reductase of human adipose cell (11βHSD1) (Homo sapiens, UniProt P28845); assay: Inhibitory activity assay against cortisone reductase activity of cultured human adipocytes; type: cell-based; conditions: differentiated normal human preadipocytes (HPrAD-vis), 100 nM [1,2-3H] cortisone, 37° C.
T2 construct: host or cells: normal human visceral preadipocytes (HPrAD-vis) differentiated into adipocytes
Description: Normal human preadipocytes (HPrAD-vis, manufactured by Cambrex corporation) were inoculated onto a 48-well cell culture plate, and the differentiation induction was carried out according to Protocol attached to the kit. The medium for the cells on the 9-11 days of the differentiation was changed to D-MEM medium (0.2 ml; manufactured by GIBCO) containing 100 nM [1,2-^3H] cortisone (1 μCi/well, manufactured by Muromachi Yakuhin), 0.5% DMSO, a test compound (for test compound treated group, or DMSO only for the no-test compound treated group). The plate was incubated at 37° C. for 3 hours, and then the whole medium was collected. As a background group, the medium without cell was used. The medium was mixed with ethyl acetate (0.1 ml) in an Eppendorf tube. This mixture was voltexed, and then further centrifuged at 5,000 rpm for one minute at room temperature to separate the ethyl acetate layer (the upper layer). The ethyl acetate layer (10 μl) was spotted on an aluminium plate for thin layer chromatography (silica gel 60 angstrom, Merck & Co., Inc., hereinafter referred to as TLC plate). The developing solvent (chloroform/methanol (90:10, v/v)) was put into a sealed vessel, and the TLC plate was developed, and then dried at room temperature. An imaging plate (TR-2040, Fujifilm) was exposed onto the dried TLC plate for 16 hours or more. After the exposure was completed, the imaging plate was analyzed by Bioimage Analyzer (BAS2500, Fujifilm) and the [^3H] radioactivity on the part corresponding to the position of cortisol developed on the TLC plate. The inhibitory activity of a test compound against cortisone reductase was calculated according to the following equation. (inhibitory activity (%))=100×((group without test compound)−(group with test compound))/((group without test compound)−(background group))
The IC50 value was calculated by linear regression of logarithmic value of the concentration of test compound and the inhibitory activity value, using the data at 2 points showing around 50% of the inhibitory activity. […] The IC50 value of the following compounds of the present invention against cortisone reductase of human adipose cell was determined.

T2 sequence (P28845 whole entry): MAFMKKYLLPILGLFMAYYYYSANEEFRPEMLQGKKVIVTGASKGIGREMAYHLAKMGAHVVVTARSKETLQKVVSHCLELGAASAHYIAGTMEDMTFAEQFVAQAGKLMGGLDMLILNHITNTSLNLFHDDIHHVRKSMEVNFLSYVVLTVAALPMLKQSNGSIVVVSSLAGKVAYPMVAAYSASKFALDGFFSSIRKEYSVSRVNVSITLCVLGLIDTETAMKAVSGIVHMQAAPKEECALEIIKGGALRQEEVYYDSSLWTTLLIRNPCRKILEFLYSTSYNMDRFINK
T1 sequence (P50172 whole entry): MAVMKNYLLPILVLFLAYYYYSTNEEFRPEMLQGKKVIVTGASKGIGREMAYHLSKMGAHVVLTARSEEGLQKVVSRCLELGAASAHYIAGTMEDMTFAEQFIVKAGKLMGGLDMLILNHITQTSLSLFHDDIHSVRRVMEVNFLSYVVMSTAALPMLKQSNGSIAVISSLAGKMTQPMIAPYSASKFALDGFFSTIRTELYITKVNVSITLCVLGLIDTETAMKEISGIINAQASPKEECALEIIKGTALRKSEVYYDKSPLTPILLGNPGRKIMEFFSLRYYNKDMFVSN

Structure (SMILES) | IC50 [1] | IC50 [2]
O=C(NC1C2CC3CC1CC(O)(C3)C2)N1C2CCC1CC(Oc1cccc(COCC(F)(F)F)c1)C2 (centres unmarked) [Example 367] | < 3 nM | 
O=C(NC1C2CC3CC1CC(O)(C3)C2)N1C2CCC1CC(Oc1cc(OCC(F)(F)F)ccn1)C2 (centres unmarked) [Example 373] |  | 17 nM
Cc1ccnc(C2CC3CCC(C2)N3C(=O)NC2C3CC4CC2CC(O)(C4)C3)c1 (centres unmarked) [compound 241] |  | < 3 nM
Cc1cccnc1OC1CC2CCC(C1)N2C(=O)NC1C2CC3CC1CC(O)(C3)C2 (centres unmarked) [Example 407] | 4.1 nM | 
O=C(N[C@H]1C2CC3CC1C[C@](O)(C3)C2)N1[C@@H]2CC[C@H]1C[C@H](Oc1ccccc1)C2 [compound 2] |  | < 1 nM
O=C(NC1C2CC3CC1CC(O)(C3)C2)N1C2CCC1CC(Oc1ccc(F)cn1)C2 (centres unmarked) [Example 409] |  | < 3 nM
O=C(N[C@H]1C2CC3CC1C[C@](O)(C3)C2)N1[C@@H]2CC[C@H]1CC(COc1ccccc1)C2 (stereo partly drawn) [Example 314, (1R,5S)-N-[(E)-5-Hydroxyadamantan-2-yl]-3-(phenoxymethyl)-8-azabicyclo[3.2.1]octane-8-carboxyamide] |  | 19 nM
Cc1cccc(N2CCC(OC3CC4CCC(C3)N4C(=O)NC3C4CC5CC3CC(O)(C5)C4)CC2)c1 (centres unmarked) [Example 423] | < 3 nM | 
CC(C)c1ccnc(OC2CC3CCC(C2)N3C(=O)NC2C3CC4CC2CC(O)(C4)C3)c1 (centres unmarked) [Example 309] | 4.1 nM | 
O=C(NC1C2CC3CC1CC(O)(C3)C2)N1C2CCC1CC(OC1CCN(c3ccc(F)cn3)CC1)C2 (centres unmarked) [Example 427] |  | 15 nM
O=C(NC1C2CC3CC1CC(O)(C3)C2)N1C2CCC1CC(Oc1cc(OC(F)F)ccn1)C2 (centres unmarked) [Example 339] |  | < 3 nM
O=C(NC1C2CC3CC1CC(O)(C3)C2)N1C2CCC1CC(Oc1cccc(Cl)n1)C2 (centres unmarked) [Example 311] | 8.8 nM | 
Cc1cnc(C)c(OC2CC3CCC(C2)N3C(=O)NC2C3CC4CC2CC(O)(C4)C3)n1 (centres unmarked) [Example 306] |  | 6.3 nM
O=C(NC1C2CC3CC1CC(O)(C3)C2)N1C2CCC1CC(Oc1ccc(F)cn1)C2 (centres unmarked) [Example 413] |  | < 3 nM
O=C(NC1C2CC3CC1CC(O)(C3)C2)N1C2CCC1CC(Oc1ncc(C(F)F)cc1Cl)C2 (centres unmarked) [Example 342] | < 3 nM | 
O=C(NC1C2CC3CC1CC(O)(C3)C2)N1C2CCC1CC(Oc1ncccc1C(F)F)C2 (centres unmarked) [Example 336] |  | 8.4 nM
Cc1cc(OC2CC3CCC(C2)N3C(=O)NC2C3CC4CC2CC(O)(C4)C3)ncc1F (centres unmarked) [Example 404] |  | < 3 nM
O=C(NC1C2CC3CC1CC(O)(C3)C2)N1C2CCC1CC(Oc1ncccc1C1CC1)C2 (centres unmarked) [Example 326] |  | < 3 nM
COCc1cccc(OC2CC3CCC(C2)N3C(=O)NC2C3CC4CC2CC(O)(C4)C3)c1F (centres unmarked) [Example 364] | 7.7 nM | 
COc1cccc(OC2CC3CCC(C2)N3C(=O)NC2C3CC4CC2CC(O)(C4)C3)c1Cl (centres unmarked) [compound 192] |  | < 3 nM
O=C(NC1C2CC3CC1CC(O)(C3)C2)N1C2CCC1CC(Oc1ccc3c(c1)OC(F)(F)O3)C2 (centres unmarked) [Example 378] |  | 14 nM
O=C(NC1C2CC3CC1CC(O)(C3)C2)N1C2CCC1CC(Oc1cc(C(F)(F)F)ccn1)C2 (centres unmarked) [Example 307] | < 1 nM | 
O=C(NC1C2CC3CC1CC(O)(C3)C2)N1C2CCC1CC(N1Cc3ccccc3C1)C2 (centres unmarked) [Example 431] | 27 nM | 
CC(=O)c1cccnc1OC1CC2CCC(C1)N2C(=O)NC1C2CC3CC1CC(O)(C3)C2 (centres unmarked) [Example 353] | 7.9 nM | 
O=C1CCc2ccc(OC3CC4CCC(C3)N4C(=O)NC3C4CC5CC3CC(O)(C5)C4)cc21 (centres unmarked) [Example 390] |  | 11 nM
CCc1cccnc1OC1CC2CCC(C1)N2C(=O)NC1C2CC3CC1CC(O)(C3)C2 (centres unmarked) [Example 324] | < 3 nM | 
CN(c1ccccc1)C1CC2CCC(C1)N2C(=O)NC1C2CC3CC1CC(O)(C3)C2 (stereo not drawn) [Example 316, (3-Endo)-N-[(E)-5-hydroxyadamantan-2-yl]-3-[methyl(phenyl)amino]-8-azabicyclo-[3.2.1]octane-8-carboxamide] | 18 nM | 
O=C(NC1C2CC3CC1CC(O)(C3)C2)N1C2CCC1CC(Oc1cc(F)c(F)c(F)c1)C2 (centres unmarked) [Example 383] |  | < 3 nM
O=C(NC1C2CC3CC1CC(O)(C3)C2)N1C2CCC1CC(Oc1ncccc1F)C2 (centres unmarked) [Example 400] | < 3 nM | 

Reference: US8933229B2, “8-azabicyclo[3.2.1]octane-8-carboxamide derivative” (Sumitomo Dainippon Pharma Co., Ltd., priority 2009, dated 2015)
